Read-outs that look alike come from different tables or passages of the source.
Assays:
HCT116 cells = assay: Growth inhibition assay (MTS); assay type: cell-based; details: Homo sapiens, Table 5, HCT116 cells, 48 hours treatment, MTS, read-out: Growth Inhibition (GI50, uM) HCT116
Protocol: (§1) SW480 or HCT116 cells were placed into 96 well microplate (10^4cells/well) and incubated for 24 hours at 37° C. 20 μl of [3-(4,5-dimethylthiazol-2-yl)-5-(3-carboxyphenyl)-2-(4-sulfophenyl)-2H-tetrazolium, inner salt](MTS) solution (Promega) was added into each well and the absorbance after 2 hour incubation at 37° C. (negative control) was read. And then, the cells were treated with TCF4 compound at various concentrations for 48 hours. 20 μl of MTS solution (Promega) was added into each well and incubated for 2 hour at 37° C. Cell viability was measured by reading the absorbance at 490 nm using a microplate reader (Molecular device) and cytotoxicity of a compound at each concentration was calculated.
as §1, with “a test” for “TCF4”

SW480 cells = assay: Growth inhibition assay (MTS); assay type: cell-based; details: Homo sapiens, Table 5, SW480 cells, 48 hours treatment, MTS, read-out: Growth Inhibition (GI50, uM) SW480
Protocol: as §1
as §1, with “a test” for “TCF4”

Row | Structure (SMILES) | GI50 (HCT116 cells; HCT-116, 48 h) | GI50 (SW480 cells; SW480, 48 h) | GI50 (HCT116 cells; HCT-116) | GI50 (SW480 cells)
1 | C=CCN1CC(=O)N2[C@@H](Cc3ccc(O)cc3)C(=O)N(Cc3cccc4c3OCO4)C[C@@H]2N1C(=O)NCc1ccccc1 [Compound 172] | 0.9 ± 0.1 µM | 0.8 ± 0.1 µM | – | –
2 | C=CCN1CC(=O)N2[C@@H](Cc3ccc(O)cc3)C(=O)N(Cc3ccc(F)cc3F)C[C@@H]2N1C(=O)NCc1ccc(F)cc1 [Compound 145] | 5.9 ± 0.3 µM | 6.4 ± 0.1 µM | – | –
3 | C[C@H](c1cccc(N(C)C)c1)N1C[C@H]2N(C(=O)CN(C)N2C(=O)NCc2ccccc2)[C@@H](Cc2ccc(O)cc2)C1=O [Compound 38] | 6.9 µM | 8.5 µM | – | –
4 | C=CCN1CC(=O)N2[C@@H](Cc3ccc(O)cc3)C(=O)N(Cc3ccc4c(c3)OCCO4)C[C@@H]2N1C(=O)NCc1ccccc1 [Compound 157] | 1.2 ± 0.1 µM | 1 ± 0.2 µM | – | –
5 | C[C@H](c1ccc(F)c(N(C)C)c1)N1C[C@H]2N(C(=O)CN(C)N2C(=O)NCc2ccccc2)[C@@H](Cc2ccc(O)cc2)C1=O [Compound 37] | 9.2 ± 0.9 µM | 10.4 ± 0.8 µM | – | –
6 | CN1CC(=O)N2[C@@H](Cc3ccc(O)cc3)C(=O)N(Cc3cccc(F)c3)C[C@@H]2N1C(=O)NCc1ccccc1 [Compound 11] | – | – | 1.3 µM | 1.97 µM
7 | C=CCN1CC(=O)N2[C@@H](Cc3ccc(OP(=O)(O)O)cc3)C(=O)N(Cc3ccc(OC)cc3)C[C@@H]2N1C(=O)NCc1ccccc1 [Compound 179] | – | – | 1.6 ± 0.1 µM | 1.5 ± 0.1 µM
8 | C[C@H](c1ccc(Cl)c2cccnc12)N1CC2N(C(=O)CN(C)N2C(=O)NCc2ccccc2)[C@@H](Cc2ccc(O)cc2)C1=O (stereo partly drawn) [Compound 168] | 6.5 ± 0.3 µM | 6.2 ± 0.8 µM | – | –
9 | C#CCn1ncc2ccc(CN3C[C@H]4N(C(=O)CN(C)N4C(=O)NCc4ccccc4)[C@@H](Cc4ccc(O)cc4)C3=O)cc21 [Compound 68] | 3.8 ± 0.6 µM | 3.7 ± 0.2 µM | – | –
10 | C=CCN1CC(=O)N2[C@@H](Cc3ccc(O)cc3)C(=O)N(Cc3cccc(NC)c3)C[C@@H]2N1C(=O)NCc1ccccc1 [Compound 163] | 2.3 ± 0.4 µM | 2.4 ± 0.2 µM | – | –
11 | CN(C)c1ccccc1CN1C[C@H]2N(C(=O)CN(C)N2C(=O)NCc2ccccc2)[C@@H](Cc2ccc(O)cc2)C1=O [Compound 22] | 3.26 µM | 6.58 µM | – | –
12 | C=CCN1CC(=O)N2[C@@H](Cc3ccc(O)cc3)C(=O)N([C@@H](C)c3cccc4cccnc34)C[C@@H]2N1C(=O)NCc1ccccc1 [Compound 160] | 10.1 ± 1.3 µM | 13.7 ± 0.5 µM | – | –
13 | CN1CC(=O)N2[C@@H](Cc3ccc(O)cc3)C(=O)N(Cc3ccccc3C(F)(F)F)C[C@@H]2N1C(=O)NCc1ccccc1 [Compound 7] | 0.73 µM | 1.22 µM | – | –
14 | CCN(CC)c1cccc(CN2C[C@H]3N(C(=O)CN(C)N3C(=O)NCc3ccccc3)[C@@H](Cc3ccc(O)cc3)C2=O)c1 [Compound 26] | 3.06 µM | 23.9 µM | – | –
15 | C=CCN1CC(=O)N2[C@@H](Cc3ccc(O)cc3)C(=O)N(Cc3cccc4scnc34)C[C@@H]2N1C(=O)NCc1ccccc1 [Compound 152] | 0.6 ± 0.1 µM | 0.7 ± 0.1 µM | – | –
16 | C#CCN1CC(=O)N2[C@@H](Cc3ccc(O)cc3)C(=O)N(Cc3ccc(F)cc3F)C[C@@H]2N1C(=O)NCc1ccccc1 [Compound 116] | 1.7 ± 0.1 µM | 2.8 ± 0.9 µM | – | –
17 | C=CCOC(=O)NCCCC[C@H]1C(=O)N(Cc2ccc(Cl)c(Cl)c2)C[C@H]2N1C(=O)CN(C)N2C(=O)NCc1ccccc1 [Compound 141] | 21 ± 2.6 µM | 35 ± 11 µM | – | –
18 | C=CCN1CC(=O)N2[C@@H](Cc3ccc(O)cc3)C(=O)N(Cc3ccc(F)c4scnc34)C[C@@H]2N1C(=O)NCc1ccccc1 [Compound 194] | 0.2 ± 0.02 µM | 0.2 ± 0.02 µM | – | –

Reference: patent publication US7671054B1, “Reverse-turn mimetics and method relating thereto” (Choongwae Pharma Corporation, priority 2001, dated 2010)
